# Measurements published in ChEMBL document CHEMBL1130217, “Use of a pharmacophore model for the design of EGF-R tyrosine kinase inhibitors: 4-(phenylamino)pyrazolo[3,4-d]pyrimidines” (J Med Chem, 1997).
# Several values for one entry are separate records, joined by “and”; a condition that tells them apart may be missing. Equal entries are not always repeated.
# Tests used:
# Balb/MK [1] = assay: Inhibition of proliferation of EGF-dependent BALB/MK cells.; assay type: functional, cell-based; details: Mus musculus
# [2] = molecular target: Platelet-derived growth factor receptor (Homo sapiens, UniProt P09619+P16234); assay: Inhibition of PDGF stimulated tyrosine phosphorylation in BALB/c3t3 cells.
# [3] = molecular target: T1, Proto-oncogene tyrosine-protein kinase Src (Homo sapiens, UniProt P12931); assay: Inhibitory activity against c-Src tyrosine kinase
# T1 sequence (P12931 2-536 limits assumed): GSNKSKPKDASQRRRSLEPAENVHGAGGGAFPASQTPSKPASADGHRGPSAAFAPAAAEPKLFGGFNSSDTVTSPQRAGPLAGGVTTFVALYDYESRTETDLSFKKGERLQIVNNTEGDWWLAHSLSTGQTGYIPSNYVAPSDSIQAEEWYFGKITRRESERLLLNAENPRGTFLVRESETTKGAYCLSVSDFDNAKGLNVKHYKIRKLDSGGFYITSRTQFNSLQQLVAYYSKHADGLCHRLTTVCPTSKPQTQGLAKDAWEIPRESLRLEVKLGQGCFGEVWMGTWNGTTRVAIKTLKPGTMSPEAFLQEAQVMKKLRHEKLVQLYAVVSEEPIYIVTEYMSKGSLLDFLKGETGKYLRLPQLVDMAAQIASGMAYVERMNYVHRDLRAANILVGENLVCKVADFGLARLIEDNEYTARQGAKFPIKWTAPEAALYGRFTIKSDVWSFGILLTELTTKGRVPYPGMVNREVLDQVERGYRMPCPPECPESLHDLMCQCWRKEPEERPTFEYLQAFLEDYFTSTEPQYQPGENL
# [4] = molecular target: T2, Epidermal growth factor receptor (Homo sapiens, UniProt P00533); assay: Inhibition of EGF-stimulated tyrosine phosphorylation in A431 cells.
# T2 sequence (P00533 whole entry): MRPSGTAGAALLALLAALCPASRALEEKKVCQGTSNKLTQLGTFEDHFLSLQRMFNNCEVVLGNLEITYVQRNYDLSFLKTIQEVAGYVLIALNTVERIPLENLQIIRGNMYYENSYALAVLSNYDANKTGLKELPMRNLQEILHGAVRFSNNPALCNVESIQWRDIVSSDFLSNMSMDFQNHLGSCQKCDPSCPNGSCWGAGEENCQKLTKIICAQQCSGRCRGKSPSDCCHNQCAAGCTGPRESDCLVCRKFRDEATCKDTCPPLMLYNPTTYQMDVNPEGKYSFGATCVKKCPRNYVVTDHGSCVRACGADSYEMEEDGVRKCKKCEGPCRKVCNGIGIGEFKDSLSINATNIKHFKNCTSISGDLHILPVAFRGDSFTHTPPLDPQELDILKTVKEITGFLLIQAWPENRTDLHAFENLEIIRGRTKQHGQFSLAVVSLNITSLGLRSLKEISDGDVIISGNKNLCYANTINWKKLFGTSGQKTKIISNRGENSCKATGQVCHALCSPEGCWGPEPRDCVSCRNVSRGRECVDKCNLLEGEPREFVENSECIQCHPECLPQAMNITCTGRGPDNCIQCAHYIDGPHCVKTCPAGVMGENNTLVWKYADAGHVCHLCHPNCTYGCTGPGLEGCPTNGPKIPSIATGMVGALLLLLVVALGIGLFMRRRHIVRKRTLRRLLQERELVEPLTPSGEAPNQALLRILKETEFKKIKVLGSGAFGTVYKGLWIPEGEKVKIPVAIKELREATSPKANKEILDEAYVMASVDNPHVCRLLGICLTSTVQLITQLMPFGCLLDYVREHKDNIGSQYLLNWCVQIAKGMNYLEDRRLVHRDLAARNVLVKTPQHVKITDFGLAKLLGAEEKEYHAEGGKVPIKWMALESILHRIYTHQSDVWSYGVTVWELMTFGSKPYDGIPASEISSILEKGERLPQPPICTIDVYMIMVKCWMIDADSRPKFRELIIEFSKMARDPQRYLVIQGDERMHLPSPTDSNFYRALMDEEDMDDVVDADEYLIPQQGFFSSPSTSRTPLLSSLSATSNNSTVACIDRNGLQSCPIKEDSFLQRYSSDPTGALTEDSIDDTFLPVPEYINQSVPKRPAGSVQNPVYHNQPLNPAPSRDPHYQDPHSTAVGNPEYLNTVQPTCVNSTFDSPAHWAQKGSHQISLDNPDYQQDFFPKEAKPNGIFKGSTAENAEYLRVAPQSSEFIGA
# [5] = molecular target: Tyrosine-protein kinase ABL1 (Homo sapiens, UniProt P00519)
# Chain of Tyrosine-protein kinase ABL1 (P00519 whole entry, looked up): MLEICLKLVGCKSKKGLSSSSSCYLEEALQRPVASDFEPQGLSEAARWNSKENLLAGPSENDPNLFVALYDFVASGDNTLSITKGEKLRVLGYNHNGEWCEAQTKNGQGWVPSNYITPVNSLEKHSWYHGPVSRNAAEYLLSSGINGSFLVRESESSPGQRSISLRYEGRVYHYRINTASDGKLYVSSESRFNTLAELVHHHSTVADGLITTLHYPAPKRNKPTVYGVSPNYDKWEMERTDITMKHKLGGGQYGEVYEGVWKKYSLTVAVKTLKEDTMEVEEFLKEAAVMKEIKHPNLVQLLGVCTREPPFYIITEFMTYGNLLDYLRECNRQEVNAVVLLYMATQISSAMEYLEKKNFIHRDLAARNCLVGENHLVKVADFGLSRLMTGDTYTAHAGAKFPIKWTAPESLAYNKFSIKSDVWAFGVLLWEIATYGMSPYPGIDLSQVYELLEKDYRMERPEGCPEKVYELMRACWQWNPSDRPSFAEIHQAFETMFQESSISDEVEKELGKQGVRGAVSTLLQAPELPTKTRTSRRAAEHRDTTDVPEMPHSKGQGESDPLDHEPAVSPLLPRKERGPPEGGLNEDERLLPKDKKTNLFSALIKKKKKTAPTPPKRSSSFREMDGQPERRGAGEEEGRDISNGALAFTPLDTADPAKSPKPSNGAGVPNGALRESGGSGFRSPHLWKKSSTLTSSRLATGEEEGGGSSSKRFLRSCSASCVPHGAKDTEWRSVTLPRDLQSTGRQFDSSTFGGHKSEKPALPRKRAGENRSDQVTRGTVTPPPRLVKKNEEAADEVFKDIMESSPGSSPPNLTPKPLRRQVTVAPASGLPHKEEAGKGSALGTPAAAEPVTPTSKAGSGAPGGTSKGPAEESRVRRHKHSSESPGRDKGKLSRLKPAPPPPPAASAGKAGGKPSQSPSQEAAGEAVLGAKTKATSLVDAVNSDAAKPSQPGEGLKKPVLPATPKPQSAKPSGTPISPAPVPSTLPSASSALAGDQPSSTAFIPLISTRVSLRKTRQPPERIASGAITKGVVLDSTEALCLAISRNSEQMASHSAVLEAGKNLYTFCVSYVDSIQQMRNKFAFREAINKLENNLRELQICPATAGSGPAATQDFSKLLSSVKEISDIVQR
# Description: Inhibitory activity against v-Abl tyrosine kinase
# [6] = molecular target: T2, Epidermal growth factor receptor
# Description: Inhibitory activity against epidermal growth factor receptor tyrosine kinase.
# [7] = molecular target: Cyclin-dependent kinase 1 (Homo sapiens, UniProt P06493); assay: Inhibitory activity against CDK1 Ser/Thr kinase
# Chain of Cyclin-dependent kinase 1 (P06493 whole entry): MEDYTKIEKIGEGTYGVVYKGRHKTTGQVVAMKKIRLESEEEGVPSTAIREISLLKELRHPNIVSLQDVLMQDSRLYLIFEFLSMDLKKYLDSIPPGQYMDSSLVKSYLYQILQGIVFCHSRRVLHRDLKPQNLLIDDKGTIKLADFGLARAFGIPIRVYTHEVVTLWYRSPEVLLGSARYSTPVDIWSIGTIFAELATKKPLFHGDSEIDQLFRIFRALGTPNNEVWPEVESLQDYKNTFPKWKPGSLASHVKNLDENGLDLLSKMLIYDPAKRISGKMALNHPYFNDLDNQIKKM
# [8] = molecular target: Protein kinase C alpha type (Homo sapiens, UniProt P17252); assay: Inhibitory activity against protein kinase C alpha […] kinase.
# A-431 [9] = assay: In vivo activity against A431 xenografts in mice at 12.5 mg/kg peroral dose; assay type: functional; details: route oral
# A-431 [10] = assay: In vivo activity against A431 xenografts in mice at 12.5 mg/kg ip dose; assay type: functional; details: route intraperitoneal
# A-431 [11] = assay: In vivo activity against A431 xenografts in mice at 50 mg/kg ip dose; assay type: functional; details: route intraperitoneal
# [12] = molecular target: T1, Proto-oncogene tyrosine-protein kinase Src; assay: Inhibition of c-Src tyrosine kinase
# Balb/MK [13] = assay: Inhibition of proliferation of EGF-dependent BALB/MK cells; assay type: functional, cell-based; details: Mus musculus
SMILES,IC50 (Balb/MK [1]) [µM],IC50 [2] [µM],IC50 [3] [µM],IC50 [4] [µM],IC50 [5] [µM],IC50 [6] [µM],IC50 [7] [µM],IC50 [8] [µM],T/C (A-431 [9]) [%],T/C (A-431 [10]) [%],T/C (A-431 [11]),IC50 [12] [µM],IC50 (Balb/MK [13]) [µM]
O=[N+]([O-])c1cccc(-c2[nH]nc3ncnc(Nc4cccc(Cl)c4)c23)c1,> 50,> 10,9.8,> 100,> 10,0.27,> 100,> 10,–,–,–,–,–
Clc1cccc(Nc2[nH]nc3ncnc(Oc4cccc(Cl)c4)c23)c1,> 50,> 10,> 10,> 100,> 10,24.2,–,> 100,–,–,–,–,–
COc1ccc(-c2[nH]nc3ncnc(Nc4cccc(Cl)c4)c23)cc1,1.6,> 10,> 10,1.5,16.5,0.096,> 100,> 10,–,–,–,–,–
Nc1ncnc2c1ncn2-c1ccccc1,–,–,–,–,–,15,–,–,–,–,–,–,–
COc1ccc(Nc2[nH]nc3ncnc(Nc4cccc(Cl)c4)c23)cc1,1.03,10,> 10,1.5,> 10,0.03,5.8,19,–,–,–,–,–
Nc1cccc(-c2[nH]nc3ncnc(Nc4cccc(Cl)c4)c23)c1,0.94,> 10,> 10,0.8,3.09,0.005,0.68,1.5,–,–,–,–,–
Clc1cccc(CNc2[nH]nc3ncnc(Nc4cccc(Cl)c4)c23)c1,3.19,> 10,2.09,1.5,> 10,0.026,16,> 10,–,–,–,–,–
COc1cc2ncnc(Nc3cccc(Br)c3)c2cc1OC,0.2,–,1.4,–,–,–,100,> 100,–,–,–,–,–
COc1cccc(CNc2[nH]nc3ncnc(Nc4cccc(Cl)c4)c23)c1,0.81,> 10,> 10,0.2,3.5,0.008,3.1,> 100,–,–,–,–,–
COc1cccc(Nc2[nH]nc3ncnc(Nc4cccc(Cl)c4)c23)c1,0.95,> 10,7.8,0.8,3.4,0.008,4.3,4.7,–,–,–,–,–
Nc1nc(N)c2c(Nc3cccc(Cl)c3)[nH]nc2n1,2.87,> 10,6,9,0.41,0.22,–,24,–,–,–,–,–
Clc1cccc(Nc2ncnc3n[nH]c(Nc4cccc(Cl)c4)c23)c1,1.4,10,5.3,0.25,1.98,0.33,–,5.9,41,46,25% and 31%,–,–
c1ccc(Nc2ncnc3n[nH]c(Nc4ccccc4)c23)cc1,8.4,> 10,75,12,1.96,0.058,–,6.9,–,–,–,–,–
Clc1cccc(Nc2[nH]cnc3nnc(-c4ccccc4)c2-3)c1,0.82,> 10,–,0.03,3.76,0.019,2.8,> 10,–,–,–,> 10,–
Clc1cccc(Nc2[nH]nc3ncnc(NCc4ccccc4)c23)c1,49.9,> 10,> 10,1.5,> 10,0.87,9,4.5,–,–,–,–,–
CC(C)(C)OC(=O)Nc1ccc(-c2[nH]nc3ncnc(Nc4cccc(Cl)c4)c23)cc1,4.3,> 10,9.8,1.5,–,0.27,–,> 10,–,–,–,–,–
Cc1c(C)n(-c2ccccc2)c2ncnc(N)c12,–,–,–,–,–,2.71,–,–,–,–,–,–,–

SMILES,IC50 (Balb/MK [1]) [µM],IC50 [2] [µM],IC50 [3] [µM],IC50 [4] [µM],IC50 [5] [µM],IC50 [6] [µM],IC50 [7] [µM],IC50 [8] [µM],T/C (A-431 [9]) [%],T/C (A-431 [10]) [%],T/C (A-431 [11]),IC50 [12] [µM],IC50 (Balb/MK [13]) [µM]
Oc1cccc(-c2[nH]nc3ncnc(Nc4cccc(Cl)c4)c23)c1,0.99,> 10,0.002,1.5,0.18,0.026,0.2,> 10,–,–,–,–,–
Oc1cccc(Nc2[nH]nc3ncnc(Nc4cccc(Cl)c4)c23)c1,0.46,> 10,0.22,0.004,0.26,0.001,3,0.56,–,–,–,–,–
Oc1ccc(-c2[nH]nc3ncnc(Nc4cccc(Cl)c4)c23)cc1,0.56,> 10,8.55,0.5,0.24,0.006,0.26,1.85,–,–,–,–,–
Nc1ncnc2c1cnn2-c1ccccc1,–,–,–,–,–,2.7,–,–,–,–,–,–,–
Oc1ccc(Nc2[nH]nc3ncnc(Nc4cccc(Cl)c4)c23)cc1,1.06,> 10,0.4,0.04,0.15,0.008,> 1,> 1,–,–,–,–,–
Clc1cccc(Nc2[nH]nc3ncnc(Nc4ccccc4)c23)c1,2.56,> 10,2.25,1,1.36,0.084,–,7.8,–,–,–,–,–
Clc1cccc(Nc2[nH]nc3ncnc(Nc4cccc(Br)c4)c23)c1,1.43,> 10,–,< 0.8,1.36,0.13,–,3.8,–,–,–,> 10,–
Nc1[nH]cnc2nnc(Nc3cccc(Cl)c3)c1-2,14,> 10,6,35,0.41,0.16,–,24,–,–,–,–,–
Nc1ccc(-c2[nH]nc3ncnc(Nc4cccc(Cl)c4)c23)cc1,0.78,> 10,4.9,0.8,3.6,0.002,4.5,3.6,–,–,–,–,–
Clc1cccc(Nc2[nH]cnc3nnc(NCc4ccccc4)c2-3)c1,0.3,> 10,> 10,0.003,6.6,0.007,7.4,10,–,–,–,–,–
Nc1ccc(Nc2[nH]nc3ncnc(Nc4cccc(Cl)c4)c23)cc1,–,> 10,2.4,–,1.18,–,> 1,> 1,–,–,–,–,–
Cc1cccc(Nc2ncnc3[nH]nc(Nc4cccc(Cl)c4)c23)c1,2.7,> 10,–,0.15,1.65,0.13,–,4.7,44,27,21% and 23%,8.08,–
Nc1ncnc2c1c(-c1ccccc1)nn2-c1ccccc1,–,> 10,–,–,> 10,0.8,–,> 100,–,–,–,–,> 50
CN(C)c1ccc(Nc2[nH]nc3ncnc(Nc4cccc(Cl)c4)c23)cc1,1.55,10,> 10,1.5,> 10,0.029,0.35,2.9,–,–,–,–,–
COc1ccc(CNc2[nH]nc3ncnc(Nc4cccc(Cl)c4)c23)cc1,0.86,> 10,> 10,0.02,> 10,0.007,5,> 100,–,–,–,–,–
CC(C)(C)OC(=O)Nc1ccc(Nc2[nH]nc3ncnc(Nc4cccc(Cl)c4)c23)cc1,> 10,> 10,> 10,> 100,> 10,> 10,57,> 10,–,–,–,–,–
Cc1c(C)n(C)c2ncnc(Nc3cccc(Cl)c3)c12,–,–,–,–,–,450,–,–,–,–,–,–,–
